Data on 3 compounds can be found in patent US7838528B2, “Substituted bicyclic 8-pyrrolidinoxanthines, methods for their production, pharmaceutical formulations and their use” (sanofi-aventis Deutschland GmbH, priority 2004, dated 2010).

The IC50 is the concentration that inhibits the measured activity by half. Low readings indicate greater potency, high ones weaker potency.

SMILES strings stand for the structures. Counter-ions that a name gives are not always drawn.

The target of the assay is T1, DPP-IV from porcine kidney (Sus scrofa, UniProt P22411).
T1 construct: DPP-IV from porcine kidney (Sigma Chemical GmbH, Munich DE); purchased Sigma Chemical GmbH, Munich DE; host or cells: porcine kidney (tissue-derived enzyme)
T1 sequence (P22411 whole entry): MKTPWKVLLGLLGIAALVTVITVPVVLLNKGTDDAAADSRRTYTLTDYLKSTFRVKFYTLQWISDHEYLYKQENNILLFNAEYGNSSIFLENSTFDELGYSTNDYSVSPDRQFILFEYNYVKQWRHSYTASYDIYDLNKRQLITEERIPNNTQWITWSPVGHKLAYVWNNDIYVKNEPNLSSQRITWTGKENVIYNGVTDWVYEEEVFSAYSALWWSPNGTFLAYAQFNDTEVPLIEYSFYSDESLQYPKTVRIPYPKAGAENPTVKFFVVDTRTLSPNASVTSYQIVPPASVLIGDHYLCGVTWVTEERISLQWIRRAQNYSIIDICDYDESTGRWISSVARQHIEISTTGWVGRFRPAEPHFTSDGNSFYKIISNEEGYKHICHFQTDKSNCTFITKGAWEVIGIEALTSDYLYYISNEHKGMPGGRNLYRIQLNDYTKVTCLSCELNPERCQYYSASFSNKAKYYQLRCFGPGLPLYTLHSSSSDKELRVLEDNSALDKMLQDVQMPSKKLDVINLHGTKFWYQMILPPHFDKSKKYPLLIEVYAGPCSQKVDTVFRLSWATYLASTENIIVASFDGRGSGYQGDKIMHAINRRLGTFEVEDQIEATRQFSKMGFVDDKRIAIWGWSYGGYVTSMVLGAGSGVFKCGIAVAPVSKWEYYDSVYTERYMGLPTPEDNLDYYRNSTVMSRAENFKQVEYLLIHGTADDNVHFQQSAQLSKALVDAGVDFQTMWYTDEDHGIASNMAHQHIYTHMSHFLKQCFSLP
As to the kind of experiment: Measurement of the DPP-IV activity (H-Ala-Pro-AFC fluorimetric assay). It is filed as biochemical. The conditions noted are these: H-Ala-Pro-AFC 15 μM, DPP-IV 1 mU/ml, Tris/HCl pH 7.4, room temperature. The procedure:
Measurement of the DPP-IV Activity: […]
a) DPP-IV from porcine kidney (Sigma Chemical GmbH, Munich DE) b) H-Ala-Pro-AFC (Bache Chemical Co., Weil am Rheine DE) […]
c) DPP-IV (1 mU/ml, final concentration) d) H-Ala-Pro-AFC (15 μM, final concentration) • in Tris/HCl (40 mM, pH 7.4), total volume 0.2 ml The reaction was carried out at room temperature at different reaction times (typically 10 min) and stopped at the end of the reaction by adding 20 μl of ZnCl2 (1 M). The H-Ala-Pro-AFC conversion was determined fluorimetrically by measuring the emission at 535 nm after excitation at 405 nm. When inhibitors were added, the added buffer volume was adapted so that a total volume of 200 μl was maintained for the assay mixture.
IC50 values for inhibitors were determined by varying the inhibitor concentrations with the stated substrate concentration of 15 μM. Ki and Km values were found by appropriate variation of substrate concentration and inhibitor concentration as described (Dixon, M. and Webb, E. C. (1979) Enzymes, third edition, pp. 47-206, Academic Press) which is herein incorporated by reference. The values for Km, IC50 and Ki were calculated using a commercially available software package (Leatherbarrow, R. J. (1992) GraFit Version 3.0, Erithacus Software Ltd. Staines, U.K.).
`CC(C)=CCn1c(N2CC[C@@H]3NCC[C@@H]32)nc2c1c(=O)n(CC(=O)c1ccccc1)c(=O)n2C` (single isomer, unassigned) [Example 1b, 8-(cis-Hexahydro-pyrrolo[3,2-b]pyrrol-1-yl)-3-methyl-7-(3-methyl-but-2-enyl)-1-(2-oxo-2-phenyl-ethyl)-3,7-dihydro-purine-2,6-dione] came in with an IC50 of 18 nM.
`CC(C)=CCn1c(N2CC[C@@H]3NCC[C@@H]32)nc2c1c(=O)n(CC(=O)c1ccccc1)c(=O)n2C` (single isomer, unassigned) [Example 1a, 8-(cis-Hexahydro-pyrrolo[3,2-b]pyrrol-1-yl)-3-methyl-7-(3-methyl-but-2-enyl)-1-(2-oxo-2-phenyl-ethyl)-3,7-dihydro-purine-2,6-dione] yielded an IC50 of 160 nM. Compared with the last compound, the IC50 is about 8.9-fold higher.
With `CC(C)=CCn1c(N2CC[C@@H]3NCC[C@@H]32)nc2c1c(=O)n(CC(=O)c1ccccc1)c(=O)n2C` (relative stereo) [Example 1, 8-(cis-Hexahydro-pyrrolo[3,2-b]pyrrol-1-yl)-3-methyl-7-(3-methyl-but-2-enyl)-1-(2-oxo-2-phenyl-ethyl)-3,7-dihydropurine-2,6-dione hydrochloride], the half-maximal inhibitory concentration (IC50) is 34 nM.
